Experimental data from patent US12636260B2, “Application of α-asarone in preparation of medicine for preventing or treating hemorrhagic stroke” (CHENGDU XINRUI TAIKANG TECHNOLOGY CO., LTD., priority 2021, dated 2026).

Columns and labels:
SAH rats [1] = test: Long-term survival rate of SAH rats; assay type: in vivo, rat; conditions: for Survival rate / 24-hour mortality rate: 2 hours after modeling then once a day for 14 days
Experimental: The experimental materials, grouping and modeling methods were the same as those in effect embodiment 1. The rats were immediately administrated 2 hours after SAH modeling according to the grouping administration protocol and continued to be administrated once a day for 14 days thereafter, and the survival of the rats was observed and recorded for 14 days. The mortality rate within 24 hours in group S was as high as 53.8%.

SAH rats [2] = test: Morris water maze and brain tissue atrophy of SAH rats in recovery phase; assay type: in vivo, rat
Experimental: Morris water maze was used to evaluate the long-term spatial perception and memory ability of rats in each group, and was performed after the survival observation, i.e., 15 to 19 days after SAH. The water maze was a circular pool with a diameter of 150 cm and a depth of 60 cm. Before the experiment, warm water (24±2)° C. was filled to a depth of 30 cm and colored black with ink. The pool was equally divided into four quadrants, and different signs were pasted on the walls of different quadrants to indicate the difference. A transparent platform with a diameter of 10 cm and a height of 28 cm was placed in the center of one quadrant, and was 2 cm beneath the water. Rats were released from the designated quadrant according to the experimental guidelines. On day 1 to 4, rats were successively released into water from four corresponding quadrants with a 10-minute interval. If the rat found the platform within 60 seconds, it was allowed to remain there for 10 seconds; if not, it was guided to the platform with a rod and allowed to stand there for 10 seconds. On day 5, the platform was removed and the rats were allowed to swim freely for 60 seconds. The escape latency, swimming speed and dwelling time on the target quadrant were recorded using a computerized tracking system (Noldus Ethovision, Tacoma, WA, USA).

ICH rats [3] = test: Brain water content and blood-brain barrier permeability (Evans blue), ICH rats; assay type: in vivo, rat; conditions: 24 hours after operation, group M, medium-dose intravenous, vs model group
Experimental: After completing the evaluation of 24-hour short-term neurological function, 4% Evans blue solution (2.5 mL/kg) was injected into the right caudal vein of the rats. After circulated for 1 hour, the rats were deeply anesthetized and transcardinally perfused with 100 mL of normal saline to collect the rats' brain. The whole brain was divided into four groups: left hemisphere (LH), right hemisphere (RH), cerebellum (Cb) and brainstem (BS). The left and right hemispheres were coronally divided into two parts, one part was immediately weighed (wet weight) with a balance with an accuracy of 0.1 mg, dried in an oven at 105° C. for 24 hours and weighed again (dry weight). The brain water content was calculated as [(wet weight−dry weight)/wet weight]×100%. The other part of the brain tissue was weighed (wet weight) and emerged into 10 times the volume of pure formamide, incubated at 60° C. for 48 hours, centrifuged at 25° C. for 30 min (10,000 rpm/min). The Evans blue in the supernatant was measured at 622 nm by a UV spectrophotometry, and calculated with a standard curve for quantification. The amount of Evans blue was expressed as μg/g of brain tissue (wet weight).

ICH rats [4] = test: Glutamate and GABA content in brain tissue, ICH rats; assay type: in vivo, rat; conditions: 12 to 24 hours after operation, group M
Experimental: The rats were deeply anesthetized, and decapitated to collect the brain at 12-24 hours after modeling. Then about 60 to 120 mg of brain cortex on the hemorrhagic side were weighed, homogenized with 10 times the volume of ice-cold centrifuge buffer for biochemical detection, homogenized for 10 min in an ice bath, and centrifuged at 4° C. for 30 minutes (14,000 rpm/min). The contents of glutamate and GABA in the supernatant were detected according to the instructions of glutamate content detection kit and rat GABA Elisa kit.

PC12 cells = test: Oxyhemoglobin-damaged PC12 cells, MTT; assay type: cell-based; conditions: α-asarone emulsion 1, 5, 10, 25, 50 μM pre-incubated 2 hours, 6 μM oxyhemoglobin 24 hours
Experimental: PC12 cells in the logarithmic phase of growth were seeded in a 96-well plate (1×10^4 cells/100 μL/well) with the marginal wells filled with sterile PBS, and cultured with complete culture medium at 37° C. with 5% CO2 for 24 hours until the cells completely adhered to the wall. The supernatant was discarded followed by oxyhemoglobin incubation at 37° C. with 5% CO2 for 24 hours with final concentrations of 0 μM, 4 μM, 6 μM, 8 μM and 10 μM, respectively. Subsequently, 10 μL MTT (5 mg/mL) was added into each well and incubated at 37° C. with 5% CO2 for 4 hours. Then, the supernatant was discarded, the formazan was dissolved with 100 μL DMSO, and the optical density (OD) was gauged at 570 nm by a microplate reader after incubation at 37° C. for 15 minutes (500 r/min) to calculate the cell viability. According to the formula “fold of cell abnormal proliferation=[(average absorbance value of the experimental group−average absorbance value of zero-adjusting well)/(average absorbance value of the control group−average absorbance value of zero-adjusting well)”, 6 μM oxyhemoglobin was screened out for following in vitro pharmacodynamic experiment since it produced a maximum of 1.5-fold abnormal cell proliferation compared to the control group. […]

C/C=C/c1cc(OC)c(OC)cc1OC [α-asarone, trans-2,4,5-trimethoxy-1-propenylbenzene]
survival time (vs group S) (SAH rats [1]; 14 days, groups M, H, O and N): prolonged
Survival rate (SAH rats [1]; Day 14, group H, α-asarone emulsion injection 30 mg/kg tail vein): 55.6%
Survival rate (SAH rats [1]; Day 14, group L, α-asarone emulsion injection 7.5 mg/kg tail vein): 37.5%
Survival rate (SAH rats [1]; Day 14, group M, α-asarone emulsion injection 15 mg/kg tail vein): 61.5%
Survival rate (SAH rats [1]; Day 14, group O, α-asarone emulsion oral administration 40 mg/kg): 62.5%
24-hour mortality rate (SAH rats [1]; group H, α-asarone emulsion injection 30 mg/kg tail vein): 22.2%
24-hour mortality rate (SAH rats [1]; group L, α-asarone emulsion injection 7.5 mg/kg tail vein): 50.0%
24-hour mortality rate (SAH rats [1]; group M, α-asarone emulsion injection 15 mg/kg tail vein): 23.1%
24-hour mortality rate (SAH rats [1]; group O, α-asarone emulsion oral administration 40 mg/kg): 25.0%
mortality rate within 24 hours (vs group S) (SAH rats [1]; groups M, H, O and N): significantly reduced
escape latency during the training period (SAH rats [2]; Morris water maze, 15 to 19 days after SAH, group M, vs group S): significantly decreased
swimming speed (SAH rats [2]; Morris water maze, group M vs group S (P<0.05)): significantly faster
time in the target quadrant, spatial probe test (SAH rats [2]; Morris water maze, group M, vs group S): notably prolonged
brain atrophy (SAH rats [2]; SAH rats after long-term administration, group M): significantly rescued
Evans blue content (ICH rats [3]): significantly reduce
brain water content (ICH rats [3]): significantly reduce
GABA content in the hemorrhagic brain tissue (ICH rats [4]): significantly reduce
glutamate content in the hemorrhagic brain tissue (ICH rats [4]): significantly reduce
abnormal increase of cell vitality caused by oxyhemoglobin (PC12 cells): significantly reduced
